The text below walks through data of patent US8716231B2, “Use of benzo-fused heterocycle sulfamide derivatives for the treatment of pain” (Janssen Pharmaceutica NV, priority 2005, dated 2014).

“Also recorded” adds a separate entry of the source.

What all share (assay type): in vivo, Sprague-Dawley rats
In assay [1] the test system is spontaneous locomotor activity. Description: Taxol Induced Peripheral Neuropathy Model (pilot), Open Field testing. The settings on record: 100 mg/kg po daily + Taxol, Day 11.
The subject of assay [2] is Taxol®-induced mechanical allodynia. The experiment in a line: Taxol Induced Peripheral Neuropathy Model (pilot), Von Frey testing. To be noted: 100 mg/kg po daily for 12 days with Taxol 2 mg/kg i.p. days 1, 3, 5, 7; Day 12. The protocol: In addition, the compound's effects on spontaneous locomotor activity was measured.
(§1) The animals were housed in polycarbonate plastic cages, 2 animals per cage, at a temperature of 18-26° C., 30-70% humidity, 12-hour light/dark cycle, with food and water available ad libityum.
(§2) On days 1, 3, 5, and 7, the rats received an ip (intraperitoneal) injection of Taxol® (2 mg/kg).
Two behavioral tests were performed: measurement of tactile sensitivity and spontaneous locomotor activity. At baseline and on Days 5 and 12 post-Taxol® injection, the animals underwent Von Frey testing for mechanical allodynia (according to the procedure as described in Chaplan, S R, Bach, F W, Pogrel, J W, Chung, J M, Yaksh, T L. Quantitative assessment of tactile allodynia in the rat paw. J Neurosci Meth, 53:55-63, 1994). Tactile sensitivity (i.e. mechanical allodynia) was measured using calibrated filaments touched to the plantar surface of the affected limb to determine paw withdrawal threshold. Briefly, the rats were placed in a Plexiglas cage with a wire mesh bottom and allowed to acclimate for 10 minutes. Once the animals settled, the plantar surface of the right hind paw was touched with a 2.0 g von Frey filament. […] Data were analyzed using two-way ANOVA, one-way ANOVA and Dunnett's test, with statistical significance at p<0.05.

Assay [3] has as its system Taxol®-induced degeneration of sciatic nerve and right hind paw. The experiment in a line: Taxol Induced Peripheral Neuropathy Model (pilot), histopathology. The settings on record: 100 mg/kg po daily + Taxol; Day 13. The protocol:
as §1, §2
On Day 13, the animals were euthanized by carbon dioxide asphyxiation. The sciatic nerve and right hind paw were excised and placed in 10% neutral buffered formalin. The harvested tissues were blocked, embedded in paraffin, sectioned and stained with hemotoxylin and eosin. The tissue was examined using light microscopy and scored by an evaluator blind to the treatment regimen. The tissue was ranked on a scale of 0 to 3 based on the degree and amount of axonal disruption observed in the section, with 0 being a normal appearance of the axon, 1 to 2 being a mild to moderate disruption of the axons and a 3 being a complete disruption and Wallerian degeneration of the axons (Cavaletti, G, Tredici, G, Braga, M, Tazzari, S. Experimental peripheral neuropathy induced in adult rats by repeated intraperitoneal administration of Taxol®. Exper Neurol 133:64-72,1995). Data were analyzed using one-way ANOVA and Dunnett's test, with statistical significance at p<0.05.

As to `NS(=O)(=O)NC[C@H]1COc2cc(Cl)ccc2O1` [Compound #8, (2S)-(−)-N-(6-Chloro-2,3-dihydro-benzo[1,4]dioxin-2-ylmethyl)-sulfamide], the “vertical rearing (Open Field)” value in assay [1] (p<0.05) is reported as “decreased vertical rearing compared to Taxol® alone”. Moreover, the “horizontal movement (Open Field)” value in assay [1] (vs Taxol alone) is “no difference between treatment groups”. In assay [2], the “effect on Taxol-induced mechanical allodynia” value is “appeared to potentiate the pain response compared to Taxol® alone; however, this difference was not statistically significant; also recorded: ineffective in preventing the allodynia”. Further, in assay [3], the “degeneration in the sciatic nerve (histopathology)” value is listed as “positive trend to decreased degeneration in the sciatic nerve, although the differences were not statistically significant” and the “severity of degeneration in the right hind paw (histopathology)” value is listed as “no effect on the severity of Taxol®-induced degeneration in the right hind paw”.
